Assay results taken from paper PMC6491818, “Novel 4-Acrylamido-Quinoline Derivatives as Potent PI3K/mTOR Dual Inhibitors: The Design, Synthesis, and in vitro and in vivo Biological Evaluation” (Frontiers in Chemistry, 2019).
Entries after “also recorded” stand apart in the source; their conditions may differ.

Tests used:
in vitro [1] = details: Sprague-Dawley, rat, microsomes
in vitro [2] = details: human, microsomes
[3] = Liver microsomal stability assay, HLM; details: human, liver microsomes
[4] = target: mTOR (1362-end, Millipore) (Homo sapiens, UniProt P42345); assay: mTOR enzymatic assay (Lance Ultra assay); format: biochemical
Description: The kinase buffer was composed of HEPES (50 mM, pH 7.5), MgCl2 (10 mM), EGTA (1 mM), MnCl2 (3 mM), Tween-20 (0.01%) and DTT (2 mM). The solution of substrate in the kinase buffer contained ULight-4E-BP1 peptide (Thr37/46, PE) and ATP. […] After being incubated at room temperature for 1 h, kinase detection buffer (10 mL) containing EDTA and Eu-anti-phospho-4E-BP1 antibody (Thr37/46, PE) was added to each well of the assay plate. Before reading on a plate reader, the mixture needs to be mixed briefly with centrifuge and then allowed to equilibrate for 1 h. After calculating the percent inhibition from Lance signal, the curves were fitted in Graphpad Prism 5 to give IC50 values.

PI3Kα = PI3Kα (Homo sapiens, UniProt P42336); assay: PI3Kα enzymatic assay (Kinase-Glo Luminescent Kinase assay); format: biochemical
PI3Kα, sequence (P42336 whole entry): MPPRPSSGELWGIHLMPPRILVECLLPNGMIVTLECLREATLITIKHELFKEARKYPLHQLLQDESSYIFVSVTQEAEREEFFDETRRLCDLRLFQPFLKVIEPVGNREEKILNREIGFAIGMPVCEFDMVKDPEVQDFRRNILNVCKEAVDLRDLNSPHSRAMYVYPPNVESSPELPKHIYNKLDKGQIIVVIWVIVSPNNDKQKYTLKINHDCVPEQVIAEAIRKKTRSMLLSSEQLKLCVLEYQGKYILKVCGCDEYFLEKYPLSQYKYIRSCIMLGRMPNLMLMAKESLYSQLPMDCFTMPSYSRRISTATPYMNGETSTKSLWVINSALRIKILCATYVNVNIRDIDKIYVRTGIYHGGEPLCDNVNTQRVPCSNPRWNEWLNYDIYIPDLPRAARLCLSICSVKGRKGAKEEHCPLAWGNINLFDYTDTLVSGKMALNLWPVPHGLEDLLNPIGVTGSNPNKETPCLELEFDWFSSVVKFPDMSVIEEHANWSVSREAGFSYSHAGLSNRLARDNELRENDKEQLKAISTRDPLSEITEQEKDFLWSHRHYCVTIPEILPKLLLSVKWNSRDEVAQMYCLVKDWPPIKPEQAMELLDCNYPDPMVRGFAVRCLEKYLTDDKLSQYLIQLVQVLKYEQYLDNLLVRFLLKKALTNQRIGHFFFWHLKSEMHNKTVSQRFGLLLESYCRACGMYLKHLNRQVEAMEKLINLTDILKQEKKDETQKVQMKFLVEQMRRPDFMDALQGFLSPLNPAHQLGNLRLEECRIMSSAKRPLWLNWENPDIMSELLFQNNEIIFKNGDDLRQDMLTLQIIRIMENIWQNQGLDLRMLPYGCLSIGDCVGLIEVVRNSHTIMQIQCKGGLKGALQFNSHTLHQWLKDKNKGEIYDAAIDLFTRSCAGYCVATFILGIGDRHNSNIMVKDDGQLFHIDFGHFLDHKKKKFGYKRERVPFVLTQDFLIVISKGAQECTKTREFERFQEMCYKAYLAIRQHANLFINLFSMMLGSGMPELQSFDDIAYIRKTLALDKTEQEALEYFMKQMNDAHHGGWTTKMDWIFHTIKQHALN
PI3Kα, sequence (P27986 whole entry partner): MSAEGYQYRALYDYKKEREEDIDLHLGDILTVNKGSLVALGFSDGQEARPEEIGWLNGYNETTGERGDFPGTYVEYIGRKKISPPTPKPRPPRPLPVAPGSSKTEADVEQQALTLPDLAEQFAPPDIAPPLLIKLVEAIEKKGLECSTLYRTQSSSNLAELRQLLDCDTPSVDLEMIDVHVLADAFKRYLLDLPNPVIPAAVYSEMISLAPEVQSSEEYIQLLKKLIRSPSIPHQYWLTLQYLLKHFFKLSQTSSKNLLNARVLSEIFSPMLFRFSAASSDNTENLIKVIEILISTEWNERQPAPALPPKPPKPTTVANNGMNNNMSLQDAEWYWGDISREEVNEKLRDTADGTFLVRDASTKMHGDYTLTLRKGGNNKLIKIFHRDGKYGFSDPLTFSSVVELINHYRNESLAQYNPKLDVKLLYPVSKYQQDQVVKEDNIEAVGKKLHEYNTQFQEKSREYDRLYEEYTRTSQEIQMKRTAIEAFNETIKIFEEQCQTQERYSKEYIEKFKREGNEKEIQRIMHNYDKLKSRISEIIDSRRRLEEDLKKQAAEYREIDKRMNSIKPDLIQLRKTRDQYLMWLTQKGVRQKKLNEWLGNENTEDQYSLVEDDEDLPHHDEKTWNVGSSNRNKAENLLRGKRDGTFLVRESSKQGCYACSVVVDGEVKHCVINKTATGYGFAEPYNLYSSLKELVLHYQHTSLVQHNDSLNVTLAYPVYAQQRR
Description: (§2) Kinase-Glo Luminescent Kinase assay (Promega) was performed to determine the PI3Kα inhibitory activity, while ADP-Glo Luminescent assay (Promega) was performed to identify the inhibitory activity against PI3Kβ, γ, or δ. The kinase buffer was composed of HEPES (50 mM, pH 7.5), MgCl2 (3 mM), EGTA (1 mM), NaCl (100 mM), CHAPS (0.03%) and DTT (2 mM). The serially diluted compound solutions (2.5 mL) were successively added to a 384-well plate. Afterwards, the solution of kinase (2.5 mL) in the kinase buffer and the solution of substrate (5 mL) in the kinase buffer containing PIP2 and ATP were added to each well of the assay plate for starting the reaction. Kinase buffer was added instead to the control well without enzyme. […] After being incubated at room temperature for 1 h, Kinase-Glo reagent (10 mL) was added to each well of the PI3Kα assay plate to quench the reaction. […] The mixture was treated briefly with centrifuge, shaken slowly, and equilibrated for 40 min. Kinase Detection reagent (10 mL) was added to each well. Before reading on a plate reader for luminescence, the resultant mixture was incubated at room temperature for 1 h. After calculating the percent inhibition from the RLU values, the curves were fitted in Graphpad Prism 5 to give IC50 values.

PI3Kβ = PI3Kβ (Homo sapiens, UniProt P42338); assay: PI3Kβ enzymatic assay (ADP-Glo Luminescent assay); format: biochemical
PI3Kβ, sequence (P42338 whole entry): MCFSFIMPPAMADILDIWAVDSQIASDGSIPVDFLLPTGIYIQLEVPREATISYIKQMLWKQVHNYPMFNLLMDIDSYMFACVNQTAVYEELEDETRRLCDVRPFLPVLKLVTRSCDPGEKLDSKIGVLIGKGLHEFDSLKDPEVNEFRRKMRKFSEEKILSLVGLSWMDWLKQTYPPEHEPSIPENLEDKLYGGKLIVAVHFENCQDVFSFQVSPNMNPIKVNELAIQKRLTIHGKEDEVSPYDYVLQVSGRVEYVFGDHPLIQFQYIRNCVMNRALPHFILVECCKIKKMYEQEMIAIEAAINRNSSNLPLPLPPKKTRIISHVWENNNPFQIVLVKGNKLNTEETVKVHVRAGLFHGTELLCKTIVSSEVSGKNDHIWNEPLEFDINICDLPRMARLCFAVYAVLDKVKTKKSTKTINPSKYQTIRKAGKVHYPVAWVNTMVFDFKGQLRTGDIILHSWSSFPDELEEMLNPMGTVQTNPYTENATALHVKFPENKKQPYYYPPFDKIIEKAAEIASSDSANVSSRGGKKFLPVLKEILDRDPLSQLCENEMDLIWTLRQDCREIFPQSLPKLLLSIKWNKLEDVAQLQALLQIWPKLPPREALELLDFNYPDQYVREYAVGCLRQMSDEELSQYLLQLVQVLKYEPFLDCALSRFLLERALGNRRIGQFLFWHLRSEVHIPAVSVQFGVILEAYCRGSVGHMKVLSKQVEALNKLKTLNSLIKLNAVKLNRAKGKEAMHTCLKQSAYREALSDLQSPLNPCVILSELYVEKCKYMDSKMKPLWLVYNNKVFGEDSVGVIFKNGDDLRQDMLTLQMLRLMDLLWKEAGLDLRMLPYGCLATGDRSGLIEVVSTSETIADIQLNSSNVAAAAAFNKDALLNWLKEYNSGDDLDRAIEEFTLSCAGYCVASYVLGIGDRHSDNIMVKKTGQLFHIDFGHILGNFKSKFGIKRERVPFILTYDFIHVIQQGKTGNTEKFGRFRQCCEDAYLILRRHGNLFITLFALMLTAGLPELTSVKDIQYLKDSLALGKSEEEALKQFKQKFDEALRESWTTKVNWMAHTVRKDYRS
PI3Kβ, sequence (P27986 whole entry partner): as the sequence (P27986 whole entry partner) above
Description: as §2

PI3Ks and mTOR = assay: Enzymatic activity against PI3Ks and mTOR (summary over all tested enzymes); format: biochemical; details: PI3Kα, PI3Kβ, PI3Kγ, PI3Kδ and mTOR
Description: Kinase-Glo Luminescent Kinase assay (Promega) was performed to determine the PI3Kα inhibitory activity, while ADP-Glo Luminescent assay (Promega) was performed to identify the inhibitory activity against PI3Kβ, γ, or δ. The kinase buffer was composed of HEPES (50 mM, pH 7.5), MgCl2 (3 mM), EGTA (1 mM), NaCl (100 mM), CHAPS (0.03%) and DTT (2 mM). The serially diluted compound solutions […] were successively added to a 384-well plate. Afterwards, the solution of kinase […] in the kinase buffer and the solution of substrate (5 mL) in the kinase buffer containing PIP2 and ATP were added to each well of the assay plate for starting the reaction. Kinase buffer was added instead to the control well without enzyme. The final concentrations of PI3Kα, PI3Kβ, PI3Kγ, PI3Kδ, PIP2, and ATP in corresponding kinase reaction mixture were 1.65 nM, 4.8 nM, 7.6 nM, 5.7 nM, […], respectively. […] Subsequently, the mixture needs to be mixed briefly with centrifuge and shaken slowly for 15 min before being read on a plate reader for luminescence. […] Before reading on a plate reader for luminescence, the resultant mixture was incubated at room temperature for 1 h. […]
Lance Ultra assay was performed to determine the mTOR (1362-end, Millipore) inhibitory activity. […] Before reading on a plate reader, the mixture needs to be mixed briefly with centrifuge and then allowed to equilibrate for 1 h. […]

PI3Kδ = PI3Kδ (Homo sapiens, UniProt O00329); assay: PI3Kδ enzymatic assay (ADP-Glo Luminescent assay); format: biochemical
PI3Kδ, sequence (O00329 whole entry): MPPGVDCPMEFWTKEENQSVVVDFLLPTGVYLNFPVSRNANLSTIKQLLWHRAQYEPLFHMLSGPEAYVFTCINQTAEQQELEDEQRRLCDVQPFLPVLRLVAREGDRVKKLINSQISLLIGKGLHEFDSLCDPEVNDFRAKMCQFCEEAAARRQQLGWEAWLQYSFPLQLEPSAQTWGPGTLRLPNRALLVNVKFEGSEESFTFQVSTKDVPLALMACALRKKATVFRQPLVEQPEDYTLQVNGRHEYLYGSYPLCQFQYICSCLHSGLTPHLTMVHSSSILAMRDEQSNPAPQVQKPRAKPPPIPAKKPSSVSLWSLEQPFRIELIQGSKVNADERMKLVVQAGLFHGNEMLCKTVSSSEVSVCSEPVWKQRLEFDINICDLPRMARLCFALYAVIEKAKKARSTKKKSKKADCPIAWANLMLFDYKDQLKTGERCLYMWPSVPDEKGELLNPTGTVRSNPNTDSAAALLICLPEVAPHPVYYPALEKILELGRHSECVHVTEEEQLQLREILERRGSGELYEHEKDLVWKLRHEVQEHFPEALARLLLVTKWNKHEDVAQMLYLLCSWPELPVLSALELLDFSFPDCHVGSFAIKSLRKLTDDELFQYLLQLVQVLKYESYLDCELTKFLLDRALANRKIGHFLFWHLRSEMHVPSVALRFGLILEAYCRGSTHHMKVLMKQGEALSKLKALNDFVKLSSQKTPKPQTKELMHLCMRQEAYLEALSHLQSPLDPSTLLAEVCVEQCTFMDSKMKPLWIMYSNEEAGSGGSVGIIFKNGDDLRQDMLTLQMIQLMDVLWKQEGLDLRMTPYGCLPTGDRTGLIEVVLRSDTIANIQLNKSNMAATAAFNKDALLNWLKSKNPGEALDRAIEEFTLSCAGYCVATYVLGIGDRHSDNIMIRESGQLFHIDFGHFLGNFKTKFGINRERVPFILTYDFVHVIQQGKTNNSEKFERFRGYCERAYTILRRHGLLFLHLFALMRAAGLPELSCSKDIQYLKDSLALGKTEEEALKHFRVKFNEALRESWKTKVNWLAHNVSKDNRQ
PI3Kδ, sequence (P27986 whole entry partner): as the sequence (P27986 whole entry partner) above
Description: as §2

[5] = Pharmacokinetic study in SD rats, oral; format: in vivo; details: Sprague-Dawley, rat, plasma, 5 mg/kg
Description: SD rats were utilized for the PK study of 8i following oral gavage at the dosage of 5 mg/kg, and the oral dose was formulated in a homogenous opaque suspension of 0.5% methylcellulose. This experiment was performed with the protocol disclosed in our previous work (Zhang et al., [2017b]). The study was carried out in accordance with institutional guidelines of the Animal Research Committee at Jiaxing University (log number JXU2015120812). The protocol was approved by the institution.

[6] = Liver microsomal stability assay, RLM; details: Sprague-Dawley, rat, liver microsomes
PI3Kγ = PI3Kγ (Homo sapiens, UniProt P48736); assay: PI3Kγ enzymatic assay (ADP-Glo Luminescent assay); format: biochemical
PI3Kγ, sequence (P48736 whole entry): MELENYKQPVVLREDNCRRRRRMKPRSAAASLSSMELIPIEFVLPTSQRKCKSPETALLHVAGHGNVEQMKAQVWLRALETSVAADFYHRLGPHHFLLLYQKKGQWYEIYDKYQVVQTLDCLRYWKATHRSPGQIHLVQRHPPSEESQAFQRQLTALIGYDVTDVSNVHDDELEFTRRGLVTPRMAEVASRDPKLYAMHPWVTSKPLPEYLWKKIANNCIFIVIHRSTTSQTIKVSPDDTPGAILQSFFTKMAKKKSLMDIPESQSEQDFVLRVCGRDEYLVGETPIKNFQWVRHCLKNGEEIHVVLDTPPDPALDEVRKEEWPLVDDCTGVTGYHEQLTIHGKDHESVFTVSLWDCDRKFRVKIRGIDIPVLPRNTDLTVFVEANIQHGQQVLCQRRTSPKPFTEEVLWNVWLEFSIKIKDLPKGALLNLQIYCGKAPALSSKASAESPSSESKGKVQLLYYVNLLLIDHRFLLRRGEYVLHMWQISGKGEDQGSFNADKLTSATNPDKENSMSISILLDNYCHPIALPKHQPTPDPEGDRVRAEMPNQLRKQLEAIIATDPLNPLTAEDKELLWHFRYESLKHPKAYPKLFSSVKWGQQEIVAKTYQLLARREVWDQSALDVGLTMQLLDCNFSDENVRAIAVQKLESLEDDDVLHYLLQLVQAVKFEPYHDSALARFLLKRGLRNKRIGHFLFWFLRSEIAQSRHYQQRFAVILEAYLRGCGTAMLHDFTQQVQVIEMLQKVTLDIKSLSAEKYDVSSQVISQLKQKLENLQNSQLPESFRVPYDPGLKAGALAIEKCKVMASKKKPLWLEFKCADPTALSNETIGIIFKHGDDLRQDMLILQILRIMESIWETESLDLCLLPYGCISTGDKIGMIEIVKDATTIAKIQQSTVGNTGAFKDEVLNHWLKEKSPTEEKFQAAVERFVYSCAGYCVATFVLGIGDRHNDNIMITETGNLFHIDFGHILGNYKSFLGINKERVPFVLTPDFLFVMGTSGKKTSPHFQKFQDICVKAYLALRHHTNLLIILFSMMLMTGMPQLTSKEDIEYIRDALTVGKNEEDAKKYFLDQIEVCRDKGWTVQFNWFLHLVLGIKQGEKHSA
Description: Kinase-Glo Luminescent Kinase assay (Promega) was performed to determine the PI3Kα inhibitory activity, while ADP-Glo Luminescent assay (Promega) was performed to identify the inhibitory activity against PI3Kβ, γ, or δ. The kinase buffer was composed of HEPES (50 mM, pH 7.5), MgCl2 (3 mM), EGTA (1 mM), NaCl (100 mM), CHAPS (0.03%) and DTT (2 mM). The serially diluted compound solutions […] were successively added to a 384-well plate. Afterwards, the solution of kinase […] in the kinase buffer and the solution of substrate (5 mL) in the kinase buffer containing PIP2 and ATP were added to each well of the assay plate for starting the reaction. Kinase buffer was added instead to the control well without enzyme. The final concentrations of PI3Kα, PI3Kβ, PI3Kγ, PI3Kδ, PIP2, and ATP in corresponding kinase reaction mixture were 1.65 nM, 4.8 nM, 7.6 nM, 5.7 nM, […], respectively. After being incubated at room temperature for 1 h, Kinase-Glo reagent […] was added to each well of the PI3Kα assay plate to quench the reaction. Subsequently, the mixture needs to be mixed briefly with centrifuge and shaken slowly for 15 min before being read on a plate reader for luminescence. As for PI3Kβ, γ, or δ, reaction mixture (5 mL) was transferred to a new 384-plate and ADP-Glo reagent (5 mL) was added for stopping the reaction. The mixture was treated briefly with centrifuge, shaken slowly, and equilibrated for 40 min. Kinase Detection reagent […] was added to each well. Before reading on a plate reader for luminescence, the resultant mixture was incubated at room temperature for 1 h. After calculating the percent inhibition from the RLU values, the curves were fitted in Graphpad Prism 5 to give IC50 values.

[7] = test system: phos-Akt (Ser473), phos-Akt (Thr308), phos-S6 ribosomal protein (Ser235/236), phos-4E-BP1 (Thr37/46); assay: Western blot of PI3K/Akt/mTOR signaling biomarkers in PC3 cells; format: cell-based; details: 3 h treatment
Description: The Western blot analysis for evaluating the capability to down-regulate phos-Akt (Ser473), phos-Akt (Thr308), phos-S6 ribosomal protein (Ser235/236), and phos-4E-BP1 (Thr37/46) in PC3 cells was performed according to the protocol disclosed in our previous study (Zhang et al., [2017a]) with a minor modification. The cells were seeded into six-well plate at 1 × 10^6 cells per well, and then incubated at 37°C (5% CO2) overnight prior to drug treatment.

[8] = test system: prostate cancer PC3 cell line; assay: Anti-proliferative SRB assay, PC3; format: cell-based; details: PC3 cells, 72 h exposure
Description: (§1) The anti-proliferative activity of compounds was evaluated by sulforhodamin B (SRB) assay. After being cultured for 10 h, cells in 96-well plates were subjected to 72 h-exposure to serially diluted compound solutions. Cells were washed with PBS and fixed with trichloroacetic acid (10%, W/V) at 4°C for 1 h. Then, cells were successively washed with PBS, stained for 0.5 h with SRB (0.4%, dissolved in 1% acetic acid), and washed by 1% acetic acid for 5 times. Protein-bound dye was extracted with unbuffered Tris base (10 mmol). After calculating the percent inhibition from absorbance, measured at 515 nm with a multiscan spectrum (Thermo Electron Co., Vantaa, Finland), the curves were fitted in Graphpad Prism 5 to give GI50 values.

[9] = test system: colorectal cancer HCT116 cell line; assay: Anti-proliferative SRB assay, HCT116; format: cell-based; details: 72 h exposure
Description: as §1

For `C[C@]12CC[C@H]3[C@@H](CCC4=CC(=O)CC[C@@]43C)[C@@H]1CC[C@@H]2O` [Testosterone], the CLint scaled (in vitro [1]) was 3780 mL/min/kg, the CLint scaled (in vitro [2]) was 91.1 mL/min/kg and the remaining at 1 h (in vitro [2]) was 4.8%.
For `COc1ncc(-c2ccc3nccc(/C=C/C(=O)N4CCN(C)CC4)c3c2)cc1NS(=O)(=O)c1ccc(F)cc1F` [8i, (E)-2,4-difluoro-N-(2-methoxy-5-(4-(3-(4-methylpiperazin-1-yl)-3-oxoprop-1-en-1-yl)quinolin-6-yl)pyridin-3-yl)benzenesulfonamide], the CLint scaled [3] was 16.6 mL/min/kg, the half-life [3] was 1.25 h and the microsomal CLint [3] was 18.5 µL/min/mg. The remaining at 1 h [3] was 57.1%, the IC50 [4] was 1.3 nM and the IC50 (PI3Kα) was 0.5 nM. For the same compound, the IC50 (PI3Kβ) was 1.5 nM, the “IC50 values against all the tested enzymes” value (PI3Ks and mTOR) was “sub-nanomolar or low nanomolar level” and the IC50 (PI3Kδ) was 1 nM. It also gave an AUC(0-inf) [5] of 412 ng·h/mL, an AUC(0-t) [5] of 379 ng·h/mL and a Cmax [5] of 249 ng/mL. For the same compound, the half-life ([5]; read-out: elimination half-life t1/2 (converted)) was 1.73 h, the CLint scaled [6] was < 17.3 mL/min/kg and the half-life [6] was > 2.42 h. The microsomal CLint [6] was < 9.6 µL/min/mg, the remaining at 1 h [6] was 72.8% and the IC50 (PI3Kγ) was 0.55 nM. The “effect on the level of phos-Akt (Ser473) compared with GSK2126458” value [7] was “stronger”, the “down-regulation of phos-Akt (Ser473), phos-Akt (Thr308), phos-S6 ribosomal protein (Ser235/236) and phos-4E-BP1 (Thr37/46)” value ([7]; at a concentration as low as 5 nM) was “dramatically down-regulated; also recorded: remarkably down-regulated” and the GI50 ([8]; Homo sapiens, PC-3, 72 h) was < 500 nM. The GI50 [8] was 400 nM, the “GI50 HCT116” value ([9]; HCT116 cells) was “sub-micromolar” and the GI50 ([9]; Homo sapiens, HCT-116, HCT116 cells) was 470 nM.
